Experimental data published in paper PMC10819888, “Benzimidazole-Based Derivatives as Apoptotic Antiproliferative Agents: Design, Synthesis, Docking, and Mechanistic Studies” (Molecules, 2024).

How the values were obtained:
[1] = system: A498; assay: NCI-60 one-dose assay; type: cell-based; conditions: Homo sapiens, A498 (Renal Cancer), read-out: Cell Inhibition Percent
[2] = system: A549/ATCC; assay: NCI-60 one-dose assay; type: cell-based; conditions: Homo sapiens, A549/ATCC (Non-Small Cell Lung Cancer), read-out: Cell Inhibition Percent
[3] = system: COLO 205; assay: NCI-60 one-dose assay; type: cell-based; conditions: Homo sapiens, COLO 205 (Colon Cancer), read-out: Cell Inhibition Percent
[4] = system: EKVX; assay: NCI-60 one-dose assay; type: cell-based; conditions: Homo sapiens, EKVX (Non-Small Cell Lung Cancer), read-out: Cell Inhibition Percent
[5] = system: HCT-116; assay: NCI-60 one-dose assay; type: cell-based; conditions: Homo sapiens, HCT-116 (Colon Cancer), read-out: Cell Inhibition Percent
[6] = system: HCT-15; assay: NCI-60 one-dose assay; type: cell-based; conditions: Homo sapiens, HCT-15 (Colon Cancer), read-out: Cell Inhibition Percent
[7] = system: HL-60(TB); assay: NCI-60 one-dose assay; type: cell-based; conditions: Homo sapiens, HL-60(TB) (Leukemia), read-out: Cell Inhibition Percent
[8] = system: IGROV1; assay: NCI-60 one-dose assay; type: cell-based; conditions: Homo sapiens, IGROV-1, IGROV1 (ovarian cancer), read-out: Cell Inhibition Percent
[9] = system: LOX IMVI; assay: NCI-60 one-dose assay; type: cell-based; conditions: Homo sapiens, LOX IMVI (Melanoma), read-out: Cell Inhibition Percent
[10] = system: M14; assay: NCI-60 one-dose assay; type: cell-based; conditions: Homo sapiens, M14 (Melanoma), read-out: Cell Inhibition Percent
[11] = system: MALME-3M; assay: NCI-60 one-dose assay; type: cell-based; conditions: Homo sapiens, MALME-3M (Melanoma), read-out: Cell Inhibition Percent
[12] = system: MCF7; assay: NCI-60 one-dose assay; type: cell-based; conditions: Homo sapiens, MCF7 (Breast Cancer), read-out: Cell Inhibition Percent
[13] = system: MDA-MB 231; assay: NCI-60 one-dose assay; type: cell-based; conditions: Homo sapiens, MDA-MB 231 (Breast Cancer), read-out: Cell Inhibition Percent
[14] = system: MDA-MB-435; assay: NCI-60 one-dose assay; type: cell-based; conditions: Homo sapiens, MDA-MB-435 (Melanoma), read-out: Cell Inhibition Percent
[15] = system: NCI-H23; assay: NCI-60 one-dose assay; type: cell-based; conditions: Homo sapiens, NCI-H23 (Non-Small Cell Lung Cancer), read-out: Cell Inhibition Percent
[16] = system: NCI-H322M; assay: NCI-60 one-dose assay; type: cell-based; conditions: Homo sapiens, NCI-H322M (Non-Small Cell Lung Cancer), read-out: Cell Inhibition Percent
[17] = system: OVCAR-3; assay: NCI-60 one-dose assay; type: cell-based; conditions: Homo sapiens, OVCAR-3 (ovarian cancer), read-out: Cell Inhibition Percent
[18] = system: OVCAR-5; assay: NCI-60 one-dose assay; type: cell-based; conditions: Homo sapiens, OVCAR-5 (ovarian cancer), read-out: Cell Inhibition Percent
[19] = system: OVCAR-8; assay: NCI-60 one-dose assay; type: cell-based; conditions: Homo sapiens, OVCAR-8 (ovarian cancer), read-out: Cell Inhibition Percent
[20] = system: PC-3; assay: NCI-60 one-dose assay; type: cell-based; conditions: Homo sapiens, PC-3 (Prostate Cancer), read-out: Cell Inhibition Percent
[21] = system: RPMI-8226; assay: NCI-60 one-dose assay; type: cell-based; conditions: Homo sapiens, RPMI-8226 (Leukemia), read-out: Cell Inhibition Percent
[22] = system: RXF 393; assay: NCI-60 one-dose assay; type: cell-based; conditions: Homo sapiens, RXF 393 (Renal Cancer), read-out: Cell Inhibition Percent
[23] = system: SF-295; assay: NCI-60 one-dose assay; type: cell-based; conditions: Homo sapiens, SF-295 (CNS cancer), read-out: Cell Inhibition Percent
[24] = system: SK-MEL-2; assay: NCI-60 one-dose assay; type: cell-based; conditions: Homo sapiens, SK-MEL-2 (Melanoma), read-out: Cell Inhibition Percent
[25] = system: SK-MEL-5; assay: NCI-60 one-dose assay; type: cell-based; conditions: Homo sapiens, SK-MEL-5 (Melanoma), read-out: Cell Inhibition Percent
[26] = system: SNB-75; assay: NCI-60 one-dose assay; type: cell-based; conditions: Homo sapiens, SNB-75 (CNS cancer), read-out: Cell Inhibition Percent
[27] = system: T-47D; assay: NCI-60 one-dose assay; type: cell-based; conditions: Homo sapiens, T47D, T-47D (Breast Cancer), read-out: Cell Inhibition Percent
[28] = system: U251; assay: NCI-60 one-dose assay; type: cell-based; conditions: Homo sapiens, U-251, U251 (CNS cancer), read-out: Cell Inhibition Percent
[29] = system: UO-31; assay: NCI-60 one-dose assay; type: cell-based; conditions: Homo sapiens, UO-31 (Renal Cancer), read-out: Cell Inhibition Percent
[30] = system: SK-MEL-2; assay: NCI-60 five-dose assay; type: cell-based, human; conditions: SK-MEL-2, Melanoma

COc1ccc(C=NNC(=O)c2ccc3[nH]c(-c4ccc(Cl)cc4)nc3c2)cc1 [Compound 4g, N′-(4-Methoxybenzylidene)-2-(4-chlorophenyl)-1H-benzimidazole-5-carbohydrazide]
inhibition at 10 µM [1]: 33.4% | inhibition at 10 µM [2]: 88% | inhibition at 10 µM [3]: 77.1% | inhibition at 10 µM [4]: 70.6% | inhibition at 10 µM [5]: 81% | inhibition at 10 µM [6]: 42.5% | inhibition at 10 µM [7]: 3.67% | inhibition at 10 µM [8]: 85.4% | inhibition at 10 µM [9]: 99.1% | inhibition at 10 µM [10]: 73.8% | inhibition at 10 µM [11]: 93.5% | inhibition at 10 µM [12]: 83.3% | inhibition at 10 µM [13]: 60.2% | inhibition at 10 µM [14]: 31.5% | inhibition at 10 µM [15]: 58.5% | inhibition at 10 µM [16]: 44.1% | inhibition at 10 µM [17]: 79.9% | inhibition at 10 µM [18]: 22.7% | inhibition at 10 µM [19]: 68.7% | inhibition at 10 µM [20]: 104% | inhibition at 10 µM [21]: 40.8% | inhibition at 10 µM [22]: 56.2% | inhibition at 10 µM [23]: 139% | inhibition at 10 µM [24]: 35.9% | inhibition at 10 µM [25]: 66.3% | inhibition at 10 µM [26]: 8.15% | inhibition at 10 µM [27]: 76.7% | inhibition at 10 µM [28]: 92% | inhibition at 10 µM [29]: 18.1% | LC50 ([30]; Homo sapiens): 69.7 µM | GI50 ([30]; Homo sapiens, read-out: GI50 Conc. per Cell Line): 3.59 µM | TGI [30]: 13.80 µM
